Assay results from publication PMC7432901, “Investigation of Strand-Selective Interaction of SNA-Modified siRNA with AGO2-MID” (International Journal of Molecular Sciences, 2020).

What follows are compounds tested against T1, AGO2-MID (Homo sapiens, UniProt Q9UKV8) (assay: isothermal titration calorimetry). Details: read-out: Ka (× 10^3 M^-1) (converted).
T1 construct: MID domain, residues 432-578; expressed in E. coli BL21(DE3)pLysS as His6-SUMO-TEV fusion (pCold I), His6-SUMO cleaved with proTEV
T1 sequence (Q9UKV8 432-578): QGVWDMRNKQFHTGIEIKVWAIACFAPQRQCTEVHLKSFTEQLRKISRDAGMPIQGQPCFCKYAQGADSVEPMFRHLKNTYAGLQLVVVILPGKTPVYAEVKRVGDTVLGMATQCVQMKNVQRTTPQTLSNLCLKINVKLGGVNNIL
Format: binding
From the text: isothermal titration calorimetry on AGO2-MID
Compound `Nc1ncnc2c1ncn2CC(=O)N[C@@H](COP(=O)(O)O)COP(=O)(O)OC[C@H]1O[C@@H](n2cnc3c(N)ncnc32)[C@H](O)[C@@H]1O` [p-sArA] has a Kd of 139 µM. `Nc1ncnc2c1ncn2[C@@H]1O[C@H](COP(=O)(O)O)[C@@H](O)[C@H]1O` [AMP] gave a Kd of 169 µM. Work on `Nc1ncnc2c1ncn2[C@@H]1O[C@H](COP(=O)(O)O[C@H]2[C@@H](O)[C@H](n3cnc4c(N)ncnc43)O[C@@H]2COP(=O)(O)O)[C@@H](O)[C@H]1O` [p-rArA] yielded a Kd of 4.35 µM. `Nc1ncnc2c1ncn2CC(=O)N[C@H](CO)COP(=O)(O)OC[C@H](COP(=O)(O)O)NC(=O)Cn1cnc2c(N)ncnc21` [p-sAsA] showed a Kd of 169 µM.
